Data published in patent US6008352A, “1-(isoquinolin-1-yl)-4-(1-phenylmethyl) piperazines; dopamine receptor subtype specific ligands” (Neurogen Corporation, priority 1998, dated 1999).

Columns and labels:
[1] = target: D4 receptor; experiment: D4 receptor binding assay (3H-YM 09151-2 displacement); design: species or system African Green monkey; conditions: 0.5 nM 3H-YM 09151-2; nonspecific binding with 1 mM spiperone
Procedure: (§1) 1. Assay For D2 And D4 Receptor Binding Activity
(§2) Pellets of COS cells containing recombinantly produced D2 or D4 receptors from African Green monkey are used for the assays. The sample is homogenized in 100 volumes (w/vol) of 0.05 M Tris HCl buffer at 4° C. and pH 7.4. The sample is then centrifuged at 30,000×g and resuspended and rehomogenized. The sample is again centrifuged as described above and the final tissue sample is frozen until use. The tissue is resuspended 1:20 (wt/vol) in 0.05 M Tris HCl buffer containing 100 mM NaCl.
(§3) Incubations are carried out at […] and contain 0.4 ml of tissue sample, 0.5 nM ^3 H-YM 09151-2 and the compound of interest in a total incubation of 1.0 ml. Nonspecific binding is defined as that binding found in the presence of 1 mM spiperone; without further additions, nonspecific binding is less than 20% of total binding. Binding characteristics for representative examples of this invention for the D2 and D4 receptor subtypes are shown in Table 2 below for rat striatal homogenates. The binding characteristics of compounds of Formula I for the D4 receptor, expressed in nM, generally range from about 0.5 nanomolar (nM) to about 25 nanomolar (nM). These compounds typically have binding constants for the D2 receptor of from about 200 nM to more than 1000 nM.

[2] = target: T1, D2 receptor (Chlorocebus aethiops, UniProt P52702); experiment: D2 receptor binding assay (3H-YM 09151-2 displacement); design: species or system African Green monkey; conditions: 0.5 nM 3H-YM 09151-2; nonspecific binding with 1 mM spiperone
T1 construct: expressed in transfected cells; host or cells: COS cells
Procedure: as §1, §2, §3

T1 sequence (P52702 whole entry): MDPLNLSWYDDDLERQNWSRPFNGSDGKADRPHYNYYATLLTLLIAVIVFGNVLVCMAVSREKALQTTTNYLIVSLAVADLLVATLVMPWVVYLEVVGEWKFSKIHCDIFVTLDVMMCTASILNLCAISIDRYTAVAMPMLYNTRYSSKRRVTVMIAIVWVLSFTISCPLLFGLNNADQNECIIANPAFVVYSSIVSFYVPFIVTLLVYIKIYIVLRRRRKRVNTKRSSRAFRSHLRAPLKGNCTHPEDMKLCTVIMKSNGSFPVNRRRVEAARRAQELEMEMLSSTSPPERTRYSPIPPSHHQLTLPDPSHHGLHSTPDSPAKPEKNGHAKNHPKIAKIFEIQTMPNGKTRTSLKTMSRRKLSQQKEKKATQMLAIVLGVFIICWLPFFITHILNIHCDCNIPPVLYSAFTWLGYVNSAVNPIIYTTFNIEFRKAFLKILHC

Row | Ki [1] [nM] | Ki [2] [nM] | SMILES
1 | 19 | – | c1ccc2c(N3CCN(Cc4ccc5c(c4)OCO5)CC3)nccc2c1 [Compound 4]
2 | 13 | 1000 | Fc1ccc(CN2CCN(c3nccc4ccccc34)CC2)cc1F [Compound 2]
3 | 9 | 220 | Cc1ccc(CN2CCN(c3nccc4ccccc34)CC2)cc1 [Compound 6]
4 | 5 | 556 | Clc1ccc(CN2CCN(c3nccc4ccccc34)CC2)cc1 [Compound 1]
